Test results: patent US20120003156A1, “METHODS FOR TREATING NEOPLASIA BY INHIBITING LACTATE DEHYDROGENASE AND/OR NICOTINAMIDE PHOSPHORIBOSYLTRANSFERASE” (The Johns Hopkins University, priority 2008, published 2012)

How the values were obtained:
[1] = target: T1, LDHA (Homo sapiens, UniProt P00338); conditions: cited from earlier work
[2] = test system: P493 human lymphoma B cells; experiment: Human P493 B cell lymphoma xenograft; format: in vivo, SCID mice; conditions: treatment from 200 mm^3; daily IP 42 μg FX11 and/or 100 μg FK866; ten days
Description: The animal studies were performed according to the protocols approved by the Animal Care and Use Committee at Johns Hopkins University. In order to generate tumorigenesis study in xenograft model, 2.0×10^7 P493 human lymphoma B cells or 5×10^6 human pancreatic cancer cells were injected subcutaneously into male SCID mice (NCI) or athymic Hsd: RH-Foxn1nu mice (Harlan), respectively, as previously described (Feldmann et al., 2007; Gao et al., 2009; Gao et al., 2007). When the tumor volume reached 200 mm^3, groups of 5 mice were injected with control 2% DMSO or 42 μg FX11 and/or 100 μg FK866. The tumor volumes were measured using a digital caliper after 4, 7 and 10 days of treatment. Tumor volumes were calculated using the following formula: [length (mm)×width (mm)×width (mm)×0.52]. The entire experiment was repeated seven times.

[3] = target: purified human liver LDHA (Homo sapiens, UniProt P00338); experiment: Determination of Ki and enzyme kinetics of LDHA
Description: The reaction velocity of purified human LDHA or GAPDH was determined by a decrease or increase in absorbance at 340 nm of NADH, respectively. […] The GADPH activity was assessed using the protocol described in Worthington Enzyme Manual: http://www.worthington-biochem.com/GAPD/assay.html with varying concentrations of NAD^+. Ki values were determined from double-reciprocal plots by linear regression analysis using SigmaPlot Enzyme Kinetic software.

[4] = test system: P493 cells; experiment: ATP levels, luciferin-luciferase-based assay; format: cell-based, human; conditions: 9 μM FX11 or 0.5 nM FK866, 20 hours
Description: P493 cells were treated with 9 μM FX11 or 0.5 nM FK866 for 20 hours and counted. ATP levels were determined by luciferin-luciferase-based assay (Promega) on aliquots containing equal number of cells according to standard protocol.

[5] = test system: AMP kinase (AMPK); experiment: Immunoblot of phospho-AMPK; format: cell-based, human; conditions: 20 hours of exposure
[6] = Side effects, hematology and blood chemistry in treated animals
[7] = test system: P493 human lymphoma B cells; experiment: Cell population growth, trypan blue live cell count; format: cell-based
Description: P493 human lymphoma B cells were maintained in RPMI 1640 with 10% fetal bovine serum (FBS) and 1% penicillin-streptomycin. P198 human pancreatic cancer cells; RCC4, RCC4-VHL human renal carcinoma cells; MCF-7 and MDA-MB-453 breast cancer cells were maintained in high glucose (4.5 mg/ml) DMEM with 10% FBS and 1% penicillin-streptomycin. Non-hypoxic cells (20% O2) were maintained at 37° C. in a 5% CO2, 95% in an air incubator. Hypoxic cells (1% O2) were maintained in a controlled atmosphere chamber (PLAS-LABS, Lansing, Mich.) with a gas mixture containing 1% O2, 5% CO2, and 94% N2 at 37° C. for the indicated time. Bright live cells were counted daily in a hemacytometer using trypan blue dye to exclude dead cells. All cells were grown at a concentration of 10^5 cells/ml. All drugs treatment began at day 0.
siRNAs targeting human LDHA (ON-TARGETplus SMARTpool) were purchased from Dharmacon Research Inc. Targeting sequences for LDHA were a pool of the following four target sequences: sequence 1, […]; sequence 2, […]; sequence 3, […]; sequence 4, […]. Accordingly, one of skill in the art would recognize the siRNA sequences corresponding to these targets. For P493 human lymphoma B cells, transfection of siRNAs was performed using an Amaxa Nucleotransfection device according to the manufacturer's instructions. Briefly, 2 μg siLDHA ON-TARGETplus SMARTpool or ON-TARGETplus Non-targeting Pool (Dharmacon Research Inc.) were transfected into 2×10^6 cells at 0 hours. […]. The remaining cells were harvested for immunoblot analysis. For P198 human pancreatic cancer cells, transfection of siRNAs was performed using X-tremeGENE siRNA Transfection Reagent (Roche) according to the manufacturer's instructions.

[8] = test system: P493 cells; experiment: Mitochondrial membrane potential by JC-1 flow cytometry; format: cell-based, human; conditions: 9 μM FX11 or/and FK866, 24 hours
Excerpt: The lipophilic cation dye (5,5′,6,6′-tetrachloro-1,1′,3,3′-tetraethylbenzimidazolcarbocyanine iodide, JC-1) (Invitrogen) was used to detect the loss of the mitochondrial membrane potential. The negative charge established by the intact mitochondrial membrane potential lets the lipophilic dye stain the mitochondria bright red which emits in channel 2 (FL2). When the mitochondrial membrane potential collapses, JC-1 remains in the cytoplasm in a green fluorescent monomeric emission in channel 1 (FL1). JC-1 reversibly changes its color from green to orange as membrane potentials increase (over values of 80-100 mV). 10^5 cells/ml were treated with 9 μM FX11 or/and FK866 for 24 hours. Stained cells were analyzed in FACScan flow cytometers (BD Bioscience).

[9] = test system: P493 cells; experiment: ROS measurement by DCFDA flow cytometry; format: cell-based, human
Description: The measurement of intracellular ROS production was measured by staining cells with 5-(and-6)-carboxy-2′,7′-dichlorodihydrofluorescein diacetate (carboxy-H2DCFDA; Molecular Probes) according to the manufacturer's instructions. 10^5 cells/ml were treated with 9 μM FX11 or FK866 for 24 hours. Stained cells were analyzed in FACScan flow cytometers (BD Bioscience).

[10] = test system: P493 cells; experiment: Annexin V / 7-AAD cell death assay; format: cell-based, human; conditions: NAC 20 mM at 24 hours post-transfection
[11] = target: T1, LDHA; experiment: Screen of 1200 FDA approved compounds for an inhibitor of LDHA; format: biochemical
Excerpt: Reduction of LDHA by siRNA induced oxidative stress and cell death. To determine whether a small molecule inhibitor of LDHA could be used to modulate tumor metabolism, 1200 FDA approved compounds were screened to identify an inhibitor of LDHA. […] As such, a series of compounds generated by Vander Jagt and coworkers, who were specifically interested in targeting malarial LDH (pLDH) (Deck et al., 1998; Yu et al., 2001) was screened. […]; 2,3-dihydroxy-6-methyl-7-(phenylmethyl)-4-propylnaphthalene-1-carboxylic acid, Pubchem ID: 10498042) and 11e (E; 2,3-dihydroxy-6-methyl-7-(methyl)-4-propylnaphthalene-1-carboxylic acid, Pubchem ID: 10265351). […]; Yu et al., 2001). […]

SMILES: CCCc1c(O)c(O)c(C(=O)O)c2cc(C)c(C)cc12 [E, 2,3-dihydroxy-6-methyl-7-(methyl)-4-propylnaphthalene-1-carboxylic acid, reference compound]
- LDHA inhibitory activity [1]: lower inhibitory activity versus FX11
- tumor growth of established P493 lymphoma xenografts [2]: no detectable anti-tumor activity
- Ki [3]: > 90 µM
- mode of inhibition of LDHA ([3]; NADH as substrate, Lineweaver-Burk plots): competitive inhibitors

SMILES: O=C(/C=C/c1cccnc1)NCCCCC1CCN(C(=O)c2ccccc2)CC1 [FK866, reference compound]
- ATP levels [4]: decrease in ATP levels
- tumor growth of established P493 lymphoma xenografts [2]: cytostatic outcome
- AMP kinase (AMPK) activation [5]: activation
- kidney (BUN, creatinine) or liver (aspartate aminotransferase, alanine aminotransferase, alkaline phosphatase) toxicity by blood chemistries ([6]; doses that affected tumor growth in vivo): did not reveal any evidence
- hematology (cytopenia) ([6]; single agent, five animals studied): mild thrombocytopenia
- proliferation of P493 cells ([7]; single agent): diminished proliferation
- mitochondrial membrane potential [8]: decreased
- ROS production ([9]; 9 μM FX11 or FK866, 24 hours): increased ROS production

SMILES: CC(=O)N[C@@H](CS)C(=O)O [NAC, N-acetylcysteine, reference compound]
- effect on cell death of siRNA-transfected cells [10]: partially reduced cell death
- effect on proliferation of P493 cells treated with either FX11 or FK866 ([7]; 20 mM NAC): partially rescue
- effect on cell proliferation of siRNA-transfected cells ([7]; NAC 20 mM at 24 hours post-transfection): partial rescue of cell proliferation
- effect on ROS induced by LDHA siRNA ([9]; cells exposed to NAC): attenuated

SMILES: CCCOc1ccccc1-c1nc2nn[nH]c2c(=O)[nH]1 [Zaprinast]
- LDHA inhibition in screen [11]: weak LDHA inhibitor
